According to patent EP2402030A1, “Linear IgE peptide epitopes of celery allergen api 1” (Charité Universitätsmedizin Berlin, priority 2010, dated 2012):

Tested on: human IgE antibodies
Test: Human IgE antibody binding to SPOT-synthesized 12-meric Api g 1.0101 peptide arrays on N-CAPE cellulose membranes, probed with sera, HRP-labeled anti-human IgE, chemiluminescence
Conditions: for celery allergic individuals responding to the peptide (positive IgE antibody binding spot) / number of celery allergic patients whose sera IgE antibodies bind the sequence / recognition by sera of celery allergic patients: sera of 21 celery allergic patients; for celery allergic individuals responding to the peptide (positive IgE antibody binding spot) / IgE binding in sera of healthy controls / recognition by sera of celery allergic patients: diluted 1:5; for celery allergic individuals responding to the peptide (positive IgE antibody binding spot): positive if SInorm above the membrane's cut off value; for IgE binding in sera of healthy controls: sera of 17 healthy subjects
Description: The protein sequence of the major allergen in celery Api g 1.0101 (UniprotKB/Swissprot entry P49372) was dissected into sets of overlapping peptides (pepscan). Subsequently, these sequences were synthesized as peptide arrays on cellulose membranes according to SPOT technology. A highly specific secondary anti-human IgE antibody with minimum cross-reactivity towards cellulose membrane-bound peptides was employed.
Synthetic arrays were probed with sera randomly chosen from a well described cohort of subjects, including 21 patients with a defined allergic reaction to celery and 17 healthy individuals. Captured human IgE antibodies were detected by a HRP-labeled secondary antibody and binding was visualized by chemiluminescence.
The optimal conditions for screening the sera of 21 celery allergic patients and 17 healthy controls were as follows: (i) replica of a 12-meric pepscan with a shift of three amino acids covering the Api g 1.0101 sequence synthesized on high-loaded N-CAPE membranes (640 nmol/cm2 - 760 nmol/cm2); (ii) prior to treatment with sera, membranes were blocked with the Sigma-Genosys blocking buffer for 2 h at room temperature; (iii) arrays were probed for 16 h at 4°C with diluted sera (1:5) for IgE antibody binding; (iv) the captured human IgE antibodies were detected with the HRP-labeled anti-human IgE antibody (A 9667, Sigma-Aldrich) and visualized by chemiluminescence; (v) spot signal intensities were measured on a LumiImager and processed with the LumiAnalyst software. To check the reproducibility of our screening procedure, three different peptide arrays were incubated and evaluated for each person (allergic and healthy).
Sera binding patterns could be reproduced in repeated incubation experiments. Although inter-membrane absolute spot signal intensities differed, the relative differences between spot signal intensities were nearly the same. This enabled comparison of spot signal intensities from different membranes by applying an additional normalization procedure. We defined an IgE antibody binding spot as positive if its normalized signal intensity (SInorm) was higher than the calculated cut off value of the appropriate membrane.
Human IgE antibody binding studies: The spotted peptide arrays were prewashed with ethanol (1 × 10 min), washed with Tris-buffered saline (TBS), pH 8.0 (3 × 10 min), and blocked for 2 h at room temperature with blocking buffer. The membranes were incubated with the patients' sera (dilution 1:5) in blocking buffer overnight at 4°C, washed with TBS, followed by a second incubation with anti-human IgE antibody (ε-chain specific) conjugated with horse radish peroxidase (HRP) (A 9667, Sigma-Aldrich, St. Louis, USA) in blocking buffer for 2 h at room temperature. To remove excess antibody the membrane was washed with TBS (3x10 min). Detection was performed with Uptilight HRP blot chemiluminescent substrate (Uptima, Interchim, Montiuçon Cedex, France) with an exposure time of 2 min. The signal intensities were recorded as Biomedical Light Units (BLU) by a Lumi Imager™ (Boehringer Mannheim GmbH, Mannheim, Germany) using the LumiAnalyst software.
Measurement of spot signal intensities: Analysis and measurement of spot signal intensities were executed with the LumiAnalyst software, version 3.1 (Boehringer Mannheim GmbH, Mannheim, Germany). The spot signal was calculated from a circular region around the spot center detected on the image. To guarantee uniform spot signal assessment, and reduce signal variations caused by the background, we choose the background correction method in the LumiAnalyst software. This method allows local background correction when calculating the BLU of each spot. The background values of each spot were determined from BLU values around the spot with a safety margin and normalized to the area of the spot. Comparing replicas of several membranes, incubated under identical conditions, we found signal intensity deviations of a factor of 11. […]

GDGGPGTLKIIT [compound 16, 12-meric peptide of Api g 1.0101]
celery allergic individuals responding to the peptide (positive IgE antibody binding spot): 38%

IFQGFVIDVDTV [peptide 7, 12-meric peptide of Api g 1.0101]
IgE binding in sera of healthy controls: not reacting with any sera IgE antibody from healthy subjects
number of celery allergic patients whose sera IgE antibodies bind the sequence: at least six
celery allergic individuals responding to the peptide (positive IgE antibody binding spot): 38%

NHVVLVPTADGG [peptide 34, 12-meric peptide located in the C-terminal region of Api g 1.0101]
IgE binding in sera of healthy controls: not reacting with any sera IgE antibody from healthy subjects
number of celery allergic patients whose sera IgE antibodies bind the sequence: at least six
celery allergic individuals responding to the peptide (positive IgE antibody binding spot): 29%

VLVPTADGGSIC [peptide 35, 12-meric peptide of Api g 1.0101]
spot signal intensity (average spot signal intensity, Fig. 3): highest measured spot signal intensity
IgE binding in sera of healthy controls: not reacting with any sera IgE antibody from healthy subjects
IgE binding in sera of healthy controls (listed as VLVPTADGGSIC): no binding
number of celery allergic patients whose sera IgE antibodies bind the sequence: at least six
recognition by sera of celery allergic patients: recognized by the sera from all the celery allergic patients
recognition by sera of celery allergic patients (listed as VLVPTADGGSIC): recognized by all sera of celery allergic patients
celery allergic individuals responding to the peptide (positive IgE antibody binding spot): 100%

IITLPDGGPITT [compound 19, 12-meric peptide of Api g 1.0101]
celery allergic individuals responding to the peptide (positive IgE antibody binding spot): 29%

PTADGGSICKTT [compound 36, 12-meric peptide of Api g 1.0101]
celery allergic individuals responding to the peptide (positive IgE antibody binding spot): 43%

GGPITTMTLRID [compound 21, 12-meric peptide of Api g 1.0101]
celery allergic individuals responding to the peptide (positive IgE antibody binding spot): 29%
